Literature values as cited in US10751297B2, “Composition and method for treating skin conditions” (priority 2017, dated 2020).

How the values were obtained:
[1] = tested on: HIV-1; details: in vitro
[2] = tested on: acyclovir-resistant HSV strains
[3] = tested on: respiratory syncytial virus; details: in vitro
[4] = tested on: Friend virus; details: in vivo
[5] = tested on: early viral protein synthesis
[6] = tested on: herpes simplex virus; details: in vitro
[7] = tested on: cells

CCCCCCCCCCCCCCCCCCCCCCO [docosanol]
antiviral activity against HIV-1 [1]: potent antiviral activity | effectiveness in acyclovir-resistant HSV strains [2]: effective | antiviral activity against respiratory syncytial virus [3]: potent antiviral activity | antiviral activity against Friend virus [4]: potent antiviral activity | inhibition of early viral protein synthesis [5]: more than 80% | antiviral activity against herpes simplex virus [6]: potent antiviral activity | concentration up to which not cytotoxic [7]: up to 300 mM
